For this experiment, the target named is T1, recombinant human GST-SYK (Homo sapiens, UniProt P43405).
T1 construct: purchased Carna Biosciences 08-176
Nature of the experiment: Homogeneous Time-Resolved Fluorescence (HTRF) assay for the recombinant human Syk enzyme. The class given is biochemical. The following applies: HTRF assay, recombinant human GST-SYK; IC50 given as class symbols; read-out: rhSYK Activity. How it is done:
Homogeneous Time-Resolved Fluorescence (HTRF) Assay for the Recombinant Human Syk Enzyme
A recombinant GST-hSYK fusion protein was used to measure potency of compounds to inhibit human Syk activity. The recombinant human GST-SYK (Carna Biosciences #08-176) ([…]) was incubated with various concentrations of the inhibitor diluted in DMSO (0.1% final concentration) for 10 minutes at room temperature in 15 mM Tris-HCl (pH 7.5), 0.01% tween 20, 2 mM DTT in 384 well plate format. To initiate the reaction the biotinylated substrate peptide (250 nM final concentration) that contains the phosphorylation site for Syk was added with magnesium (5 mM final concentration) and ATP (25 μM final concentration). Final volume of the reaction was 10 μL. Phosphorylation of the peptide was allowed to proceed for 45′ at room temperature. To quench the reaction and detect the phosphorylated product, 2 nM of a Europium-anti-phosphotyrosine antibody (Perkin Elmer #AD0161) and 70 nM SA-APC (Perkin-Elmer #CR130-100) were added together in 15 mM Tris pH 7.5, 40 mM EDTA, 0.01% tween 20. Final volume of the quenching solution was 10 μL. The resulting HTRF signal was measured after 30 minutes on an EnVision (Perkin-Elmer) reader using a time-resolved fluorescence protocol.
A general note: In TR-FRET formats the signal depends on donor and acceptor labels being close together.
In the case of `Cc1cc(Nc2nccc(C(F)(F)F)n2)cc(-c2ccc(N3CCCC3C(N)=O)nc2)c1` (racemic) [Example 7.38, 1-[5-(3-methyl-5-{[4-(trifluoromethyl)pyrimidin-2-yl]amino}phenyl)pyridin-2-yl]prolinamide], the IC50 was less than 100 nM.

Consider `Cc1cc(Nc2nccc(C(F)(F)F)n2)cc(-c2ccc(N3CCCC3C(=O)O)nc2)c1` (racemic) [Example 7.119, 1-[5-(3-methyl-5-{[4-(trifluoromethyl)pyrimidin-2-yl]amino}phenyl)pyridin-2-yl]proline], for which the IC50 is less than 100 nM.

Regarding `CNC(=O)C1CCCN1c1cc(-c2cc(C)cc(Nc3nccc(C(F)(F)F)n3)c2)ccn1` (racemic) [Example 15.81, N-methyl-1-[4-(3-methyl-5-{[4-(trifluoromethyl)pyrimidin-2-yl]amino}phenyl)pyridin-2-yl]prolinamide], the IC50 lay within 100 to 1000 nM.

On to `CCCCOC(=O)[C@H]1CC[C@H](C(C)(O)c2ccc(-c3cc(C)cc(Nc4nccc(C5CC5)n4)c3)cn2)CC1` (relative stereo) [Example 9.48, butyl trans-4-[1-(5-{3-[(4-cyclopropylpyrimidin-2-yl)amino]-5-methylphenyl}pyridin-2-yl)-1-hydroxyethyl]cyclohexanecarboxylate], for which the IC50 is 100 to 1000 nM.

With `CCCCOC(=O)[C@H]1CC[C@H](C(C)(O)c2ccc(-c3cc(C)cc(Nc4nccc(OC)n4)c3)cn2)CC1` (relative stereo) [Example 9.49, butyl trans-4-[1-hydroxy-1-(5-{3-[(4-methoxypyrimidin-2-yl)amino]-5-methylphenyl}pyridin-2-yl)ethyl]cyclohexanecarboxylate], the IC50 is less than 100 nM.

As to `Cc1cc(Nc2nccc(C(F)(F)F)n2)cc(-c2ccc(N3CCCC3C(=O)O)nc2)c1` (single isomer, unassigned) [Example 7.122, 1-[5-(3-methyl-5-{[4-(trifluoromethyl)pyrimidin-2-yl]amino}phenyl)pyridin-2-yl]proline], the IC50 was less than 100 nM.

For the compound `CC1(C)CC(O)(c2ccc(-c3cc(F)cc(Nc4nccc(C(F)(F)F)n4)c3)cn2)CCC1C(=O)O` (single isomer, unassigned) [Example 9.4, (1S,4R or 1R,4S)-4-[5-(3-fluoro-5-{[4-(trifluoromethyl)pyrimidin-2-yl]amino}phenyl)pyridin-2-yl]-4-hydroxy-2,2-dimethylcyclohexanecarboxylic acid], the IC50 is less than 100 nM.

Regarding `Cc1cc(Nc2nccc(C(F)(F)F)n2)cc(-c2ccc(C3(O)CCC(C(=O)O)C(C)(C)C3)nc2)c1` (single isomer, unassigned) [Example 9.8, (1S,4R or 1R,4S)-4-hydroxy-2,2-dimethyl-4-[5-(3-methyl-5-{[4-(trifluoromethyl)pyrimidin-2-yl]amino}phenyl)pyridin-2-yl]cyclohexanecarboxylic acid], the IC50 is less than 100 nM.

With `Cc1cc(Nc2nccc(C(F)(F)F)n2)cc(-c2ccc(C34CCC(C(=O)O3)C(C)(C)C4)nc2)c1` (single isomer, unassigned) [Example 9.9, (1R,4S or 1S,4R)-5,5-dimethyl-1-[5-(3-methyl-5-{[4-(trifluoromethyl)pyrimidin-2-yl]amino}phenyl)pyridin-2-yl]-2-oxabicyclo[2.2.2]octan-3-one], the IC50 is 100 to 1000 nM.

On to `Cc1cc(Nc2nccc(C(F)(F)F)n2)cc(-c2ccc(C34CCC(C(=O)O3)C(C)(C)C4)nc2)c1` (single isomer, unassigned) [Example 9.10, (1S,4R or 1R,4S) 5,5-dimethyl-1-[5-(3-methyl-5-{[4-(trifluoromethyl)pyrimidin-2-yl]amino}phenyl)pyridin-2-yl]-2-oxabicyclo[2.2.2]octan-3-one], for which the IC50 fell in the range of 100 to 1000 nM.

Regarding `CC1(C)CC(O)(c2ccc(-c3cc(Nc4nccc(C(F)(F)F)n4)cc(C(F)F)c3)cn2)CCC1C(=O)O` (single isomer, unassigned) [Example 9.13, (1S,4R or 1R,4S)-4-{5-[3-(difluoromethyl)-5-{[4-(trifluoromethyl)pyrimidin-2-yl]amino}phenyl]pyridin-2-yl}-4-hydroxy-2,2-dimethylcyclohexanecarboxylic acid], the IC50 is less than 100 nM.

Consider `CC1(C)CC(O)(c2ccc(-c3cc(F)cc(Nc4nccc(C(F)(F)F)n4)c3)cn2)CCC1C(=O)O` (single isomer, unassigned) [Example 9.14, (1R,4S or 1S,4R)-4-[5-(3-fluoro-5-{[4-(trifluoromethyl)pyrimidin-2-yl]amino}phenyl)pyridin-2-yl]-4-hydroxy-2,2-dimethylcyclohexanecarboxylic acid], for which the IC50 is less than 100 nM.

Take `Cc1cc(Nc2nccc(C(F)(F)F)n2)cc(-c2ccc(C3(O)CCC(C(=O)O)C(C)(C)C3)nc2)c1` (single isomer, unassigned) [Example 9.16, (1R,4S or 1S,4R)-4-hydroxy-2,2-dimethyl-4-[5-(3-methyl-5-{[4-(trifluoromethyl)pyrimidin-2-yl]amino}phenyl)pyridin-2-yl]cyclohexanecarboxylic acid]: the IC50 was less than 100 nM.

`COc1ccnc(Nc2cc(C)cc(-c3ccc(C(C)(O)[C@H]4CC[C@H](C(=O)O)CC4)nc3)c2)n1` (single isomer, unassigned) [Example 9.17, trans-4-[(1R or 1S)-1-hydroxy-1-(5-{3-[(4-methoxypyrimidin-2-yl)amino]-5-methylphenyl}pyridin-2-yl)ethyl]cyclohexanecarboxylic acid]: the IC50 was less than 100 nM.

Take `Cc1cc(Nc2nccc(C3CC3)n2)cc(-c2ccc(C(C)(O)[C@H]3CC[C@H](C(=O)O)CC3)nc2)c1` (single isomer, unassigned) [Example 9.18, trans-4-[(1R or 1S)-1-(5-{3-[(4-cyclopropylpyrimidin-2-yl)amino]-5-methylphenyl}pyridin-2-yl)-1-hydroxyethyl]cyclohexanecarboxylic acid]: the IC50 is less than 100 nM.

For `Cc1cc(Nc2nccc(C3CC3)n2)cc(-c2ccc(C(C)(O)[C@H]3CC[C@H](C(=O)O)CC3)nc2)c1` (single isomer, unassigned) [Example 9.19, trans-4-[(1R or 1S)-1-(5-{3-[(4-cyclopropylpyrimidin-2-yl)amino]-5-methylphenyl}pyridin-2-yl)-1-hydroxyethyl]cyclohexanecarboxylic acid], the IC50 is less than 100 nM.

As for `Cc1cc(Nc2nccc(C)n2)cc(-c2ccc(C(C)(O)[C@H]3CC[C@H](C(=O)O)CC3)nc2)c1` (single isomer, unassigned) [Example 9.26, trans-4-[(1R or 1S)-1-hydroxy-1-(5-{3-methyl-5-[(4-methylpyrimidin-2-yl)amino]phenyl}pyridin-2-yl)ethyl]cyclohexanecarboxylic acid], the IC50 is less than 100 nM.

In the case of `Cc1cc(Nc2nccc(C)n2)cc(-c2ccc(C(C)(O)[C@H]3CC[C@H](C(=O)O)CC3)nc2)c1` (single isomer, unassigned) [Example 9.27, cis-4-[(1S or 1R)-1-hydroxy-1-(5-{3-methyl-5-[(4-methylpyrimidin-2-yl)amino]phenyl}pyridin-2-yl)ethyl]cyclohexanecarboxylic acid], the IC50 is less than 100 nM.

Consider `COc1ccnc(Nc2cc(C)cc(-c3ccc(C(C)(O)[C@H]4CC[C@H](C(=O)O)CC4)nc3)c2)n1` (single isomer, unassigned) [Example 9.28, trans-4-[(1R or 1S)-1-hydroxy-1-(5-{3-[(4-methoxypyrimidin-2-yl)amino]-5-methylphenyl}pyridin-2-yl)ethyl]cyclohexanecarboxylic acid], for which the IC50 was less than 100 nM.

With `Cc1cc(Nc2nccc(C(F)F)n2)cc(-c2ccc(C(C)(O)C3CCC(C(=O)O)CC3)nc2)c1` (single isomer, unassigned) [Example 9.29, trans-4-{(1R or 1S)-1-[5-(3-{[4-(difluoromethyl)pyrimidin-2-yl]amino}-5-methylphenyl)pyridin-2-yl]-1-hydroxyethyl}cyclohexanecarboxylic acid], the IC50 was less than 100 nM.

`Cc1cc(Nc2nccc(C(F)(F)F)n2)cc(-c2ccc(C(C)(O)[C@H]3CC[C@H](C(=O)O)CC3)nc2)c1` (single isomer, unassigned) [Example 9.30, trans-4-{(1R or 1S)-1-hydroxy-1-[5-(3-methyl-5-{[4-(trifluoromethyl)pyrimidin-2-yl]amino}phenyl)pyridin-2-yl]ethyl}cyclohexanecarboxylic acid]: the IC50 was less than 100 nM.

As to `Cc1cc(Nc2nccc(C(F)F)n2)cc(-c2ccc(C(C)(O)C3CCC(C(=O)O)CC3)nc2)c1` (single isomer, unassigned) [Example 9.31, trans-4-{(1R or 1S)-1-[5-(3-{[4-(difluoromethyl)pyrimidin-2-yl]amino}-5-methylphenyl)pyridin-2-yl]-1-hydroxyethyl}cyclohexanecarboxylic acid], the IC50 is less than 100 nM.

Regarding `CCCCOC(=O)C1CCC(C(C)(O)c2ccc(-c3cc(C)cc(Nc4nccc(OC)n4)c3)cn2)CC1` (single isomer, unassigned) [Example 9.50, butyl trans-4-[(1R or 1S)-1-hydroxy-1-(5-{3-[(4-methoxypyrimidin-2-yl)amino]-5-methylphenyl}pyridin-2-yl)ethyl]cyclohexanecarboxylate], the IC50 was in the range of 100 to 1000 nM.

Values taken from patent publication US9376418B2, “Substituted pyridine spleen tyrosine kinase (SYK) inhibitors” (Merck Sharp & Dohme Corp., priority 2012, dated 2016).
